# Assay results from US8431564B2 (Merck Sharp & Dohme B.V., priority 2009, dated 2013).
# Target: T1, human FSH receptor (Homo sapiens, UniProt P23945)
# T1 construct: expressed in transfected cells; host or cells: CHO (Chinese Hamster Ovary) cells, stably transfected, cotransfected with CRE-luciferase reporter
# T1 sequence (P23945 18-695): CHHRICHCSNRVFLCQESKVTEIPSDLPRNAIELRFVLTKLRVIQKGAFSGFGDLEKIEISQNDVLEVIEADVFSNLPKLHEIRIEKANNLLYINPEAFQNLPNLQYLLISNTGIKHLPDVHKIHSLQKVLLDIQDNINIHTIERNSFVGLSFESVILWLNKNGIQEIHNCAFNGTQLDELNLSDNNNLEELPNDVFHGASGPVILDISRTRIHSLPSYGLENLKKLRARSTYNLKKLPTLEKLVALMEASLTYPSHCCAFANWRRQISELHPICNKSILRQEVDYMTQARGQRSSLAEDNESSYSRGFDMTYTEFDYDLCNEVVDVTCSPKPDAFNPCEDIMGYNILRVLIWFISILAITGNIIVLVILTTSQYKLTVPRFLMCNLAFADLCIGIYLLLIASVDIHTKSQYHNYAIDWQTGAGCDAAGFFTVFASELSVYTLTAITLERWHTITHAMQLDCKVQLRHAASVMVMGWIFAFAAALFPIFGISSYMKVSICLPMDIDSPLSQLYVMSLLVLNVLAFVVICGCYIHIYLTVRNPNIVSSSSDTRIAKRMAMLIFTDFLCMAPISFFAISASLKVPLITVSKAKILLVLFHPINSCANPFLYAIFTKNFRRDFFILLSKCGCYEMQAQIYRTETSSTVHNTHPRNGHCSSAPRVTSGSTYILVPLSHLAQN
# Experiment: Agonistic activity at the human FSH receptor expressed in CHO cells (CRE-luciferase reporter)
# Assay type: cell-based
# Conditions: CHO cells stably transfected with human FSH receptor and CRE/luciferase reporter; 4 hours incubation; pEC50 is -log EC50
# Description: The term EC50 means the concentration of the test compound that elicits half-maximal (50%) stimulation compared to the compound's maximally attainable effect. pEC50 is the negative log of EC50. The values can be determined e.g. in a cell line transfected with a FSH receptor gene and cotransfected with a cAMP responsive element/promoter directing the expression of a reporter gene. For the determination a software program such as MathIQ (version 2.0, ID Business Solutions Limited) can be used.
# Agonistic activity of the compounds at the human FSH receptor was determined in Chinese Hamster Ovary (CHO) cells stably transfected with the human FSH receptor and cotransfected with a cAMP responsive element (CRE)/promotor directing the expression of a firefly luciferase reporter gene. Binding of the compounds to the Gs protein-coupled FSH receptor will result in an increase of cAMP, which in turn will induce an increased transactivation of the luciferase reporter. Cells (7,500 cells/well of a 384 well plate) were incubated in Dulbecco' minimal essential F12 modified medium (Invitrogen), supplemented with 1 μg/ml bovine insulin, 5 μg/ml human apo-transferrin, 80 U/ml penicillin G and 80 μg/ml streptomycin with the test compounds (concentration between 0.0316 nM and 10.0 μM) in duplicate in a humidified atmosphere (95%) at 5-7% CO2 and 37° C. The final concentration of DMSO was 1%. After 4 hours of incubation, plates were allowed to adjust to room temperature for 1 hour. Then, Luclite (PerkinElmer) solution was added to the wells and cells were allowed to lyse for at least 1 hour at room temperature. Subsequently, luciferase activity was measured in a luminescence counter. The signal is expressed as counts per second (cps). The EC50 (concentration of the test compound that elicits half-maximal (50%) luciferase stimulation compared to the compound's maximally attainable effect) and efficacy values (maximal effect of the test compound as percentage of the maximal effect of recombinant human FSH) of the compounds were determined using the software program MathIQ (version 2.0, ID Business Solutions Limited). pEC50 data (pEC50 is −log EC50) are indicated at the synthesis examples.
row,SMILES,hFSHRago (CHO luc) pEC50
1,COc1cc2c(cc1-c1ccn(C)n1)-c1c(-c3cccs3)c3c(n1CC2)C(=O)N(C(C)(C)C)CCC3 [Compound 4h],7.19
2,CC(C)(C)N1CCCc2c(-c3cccs3)c3n(c2C1=O)CCc1ccc(-c2cnccn2)cc1-3 [Compound 4i],7.86
3,"COc1cc2c(cc1-c1cccnc1)-c1c(-c3cncs3)c3c(n1CC2)C(=O)N(C(C)(C)C)CCCC3 [Compound 11j, 9-tert-butyl-3-methoxy-2-pyridin-3-yl-14-(1,3-thiazol-5-yl)-5,6,10,11,12,13-hexahydroazocino[4′,3′:4,5]pyrrolo[2,1-a]isoquinolin-8(9H)-one]",8.51

# Same assay, conditions: CHO cells stably transfected with human FSH receptor and CRE/luciferase reporter; 4 hours incubation; pEC50 is -log EC50; read-out: hFSHRago (CHO luc) pEC50 (converted)
row,SMILES,EC50
1,"COc1cc2c(cc1[N+](=O)[O-])-c1c(-c3cccs3)c3c(n1CC2)C(=O)N(C(C)(C)C)CC3 [Compound 1i, 9-tert-butyl-3-methoxy-2-nitro-12-(2-thienyl)-5,6,10,11-tetrahydropyrido[4′,3′:4,5]pyrrolo[2,1-a]isoquinolin-8(9H)-one]",0.1 µM
2,"COc1cc2c(cc1[N+](=O)[O-])-c1c(-c3cccs3)c3c(n1CC2)C(=O)N(C(C)(C)C)CCC3 [Compound 2h, 9-tert-butyl-2-nitro-3-methoxy-13-(2-thienyl)-5,6,9,10,11,12-hexahydro-8H-azepino[4′,3′:4,5]pyrrolo[2,1-a]isoquinolin-8-one]",0.0347 µM
3,"CCn1nnc(-c2cc3c(cc2OC)CCn2c4c(c(-c5cccs5)c2-3)CCCN(C(C)(C)C)C4=O)n1 [Compound 3e, 9-tert-butyl-2-(2-ethyl-2H-tetrazol-5-yl)-3-methoxy-13-(2-thienyl)-5,6,9,10,11,12-hexahydro-8H-azepino[4′,3′:4,5]pyrrolo[2,1-a]isoquinolin-8-one]",0.0363 µM
4,"COc1cc2c(cc1NC(=O)C(C)C)-c1c(-c3cccs3)c3c(n1CC2)C(=O)N(C(C)(C)C)CCC3 [Compound 3f, 9-tert-butyl-2-isobutyramido-3-methoxy-13-(2-thienyl)-5,6,9,10,11,12-hexahydro-8H-azepino[4′,3′:4,5]pyrrolo[2,1-a]isoquinolin-8-one]",0.126 µM
5,"COc1cc2c(cc1-c1ncco1)-c1c(-c3cccs3)c3c(n1CC2)C(=O)N(C(C)(C)C)CCC3 [Compound 4f, 9-tert-butyl-2-(oxazol-2-yl)-3-methoxy-13-(2-thienyl)-5,6,9,10,11,12-hexahydro-8H-azepino[4′,3′:4,5]pyrrolo[2,1-a]isoquinolin-8-one]",0.0115 µM
6,"COc1cc2c(cc1-c1cccnc1)-c1c(-c3cccs3)c3c(n1CC2)C(=O)N(C(C)(C)C)CCC3 [Compound 4g, 9-tert-butyl-2-(pyridin-3-yl)-3-methoxy-13-(2-thienyl)-5,6,9,10,11,12-hexahydro-8H-azepino[4′,3′:4,5]pyrrolo[2,1-a]isoquinolin-8-one]",0.00417 µM
7,COc1cc2c(cc1OC(C)C)-c1c(-c3cccs3)c3c(n1CC2)C(=O)N(C(C)(C)C)CCC3 [Compound 6e],0.011 µM
8,COc1cc2c(cc1OC(C)C)-c1c(-c3cccs3)c3c(n1CC2)C(=O)N(C(C)C)CCC3 [Compound 6f],0.0501 µM
9,"COc1cc2c(cc1-c1cccnc1)-c1c(-c3cccs3)c3c(n1CC2)C(=O)N(C(C)(C)C)CCCOC3 [Compound 7l, 9-tert-butyl-3-methoxy-2-pyridin-3-yl-15-(2-thienyl)-5,6,9,10,11,12-hexahydro[1,5]oxazonino[8′,7′:4,5]pyrrolo[2,1-a]isoquinolin-8(14H)-one]",0.00282 µM
10,"COc1cc2c(cc1-c1cnccn1)-c1c(-c3cccs3)c3c(n1CC2)C(=O)N(C(C)(C)C)CCCOC3 [Compound 7m, 9-tert-butyl-3-methoxy-2-pyrazin-2-yl-15-(2-thienyl)-5,6,9,10,11,12-hexahydro[1,5]oxazonino[8′,7′:4,5]pyrrolo[2,1-a]isoquinolin-8(14H)-one]",0.0178 µM
11,"COc1cc2c(cc1-c1cccnc1)-c1c(-c3cncs3)c3c(n1CC2)C(=O)N(C(C)(C)C)CCCOC3 [Compound 8f, 9-tert-butyl-3-methoxy-2-pyridin-3-yl-15-(1,3-thiazol-5-yl)-5,6,9,10,11,12-hexahydro[1,5]oxazonino[8′,7′:4,5]pyrrolo[2,1-a]isoquinolin-8(14H)-one]",0.0141 µM
12,"COc1cc2c(cc1-c1cnccn1)-c1c(-c3cncs3)c3c(n1CC2)C(=O)N(C(C)(C)C)CCCOC3 [Compound 8g, 9-tert-butyl-3-methoxy-2-pyrazin-2-yl-15-(1,3-thiazol-5-yl)-5,6,9,10,11,12-hexahydro[1,5]oxazonino[8′,7′:4,5]pyrrolo[2,1-a]isoquinolin-8(14H)-one]",0.12 µM
13,"COc1cc2c(cc1-c1cccnc1)-c1c(-c3cccs3)c3c(n1CC2)C(=O)N(C(C)C)CCN(C(C)=O)C3 [Compound 10p, 12-acetyl-9-isopropyl-3-methoxy-2-pyridin-3-yl-14-(2-thienyl)-5,6,10,11,12,13-hexahydro[1,4]diazocino[6′,7′:4,5]pyrrolo[2,1-a]isoquinolin-8(9H)-one]",0.00525 µM
14,"COc1cc2c(cc1-c1c(C)nn(C)c1C)-c1c(-c3cccs3)c3c(n1CC2)C(=O)N(C(C)C)CCNC3 [Compound 10q, 9-isopropyl-3-methoxy-2-(1,3,5-trimethyl-1H-pyrazol-4-yl)-14-(2-thienyl)-5,6,10,11,12,13-hexahydro[1,4]diazocino[6′,7′:4,5]pyrrolo[2,1-a]isoquinolin-8(9H)-one]",0.257 µM
15,"COc1cc2c(cc1-c1c(C)nn(C)c1C)-c1c(-c3cccs3)c3c(n1CC2)C(=O)N(C(C)C)CCN(C(C)=O)C3 [Compound 10r, 12-acetyl-9-isopropyl-3-methoxy-14-(2-thienyl)-2-(1,3,5-trimethyl-1H-pyrazol-4-yl)-5,6,10,11,12,13-hexahydro[1,4]diazocino[6′,7′:4,5]pyrrolo[2,1-a]isoquinolin-8(9H)-one]",0.162 µM
16,"COc1cc2c(cc1-c1c(C)nn(C)c1C)-c1c(-c3cccs3)c3c(n1CC2)C(=O)N(C(C)C)CCN(C(=O)C(C)C)C3 [Compound 10s, 12-isobutyryl-9-isopropyl-3-methoxy-14-(2-thienyl)-2-(1,3,5-trimethyl-1H-pyrazol-4-yl)-5,6,10,11,12,13-hexahydro[1,4]diazocino[6′,7′:4,5]pyrrolo[2,1-a]isoquinolin-8(9H)-one]",5.01 µM
17,"COc1cc2c(cc1-c1c(C)nn(C)c1C)-c1c(-c3cccs3)c3c(n1CC2)C(=O)N(C(C)C)CCN(C(=O)CCC(F)(F)F)C3 [Compound 10t, 9-isopropyl-3-methoxy-14-(2-thienyl)-12-(4,4,4-trifluorobutanoyl)-2-(1,3,5-trimethyl-1H-pyrazol-4-yl)-5,6,10,11,12,13-hexahydro[1,4]diazocino[6′,7′:4,5]pyrrolo[2,1-a]isoquinolin-8(9H)-one]",0.977 µM
18,"COc1cc2c(cc1-c1cccnc1)-c1c(-c3cccs3)c3c(n1CC2)C(=O)N(C(C)C)CCN(C(=O)C(C)C)C3 [Compound 10w, 9-isopropyl-3-methoxy-12-isobutyryl-14-(2-thienyl)-2-pyridin-3-yl-5,6,10,11,12,13-hexahydro[1,4]diazocino[6′,7′:4,5]pyrrolo[2,1-a]isoquinolin-8(9H)-one]",0.759 µM
19,"COc1cc2c(cc1-c1ncco1)-c1c(-c3cccs3)c3c(n1CC2)C(=O)N(C(C)C)CCN(C(=O)C(C)C)C3 [Compound 10x, 9-isopropyl-3-methoxy-12-isobutyryl-14-(2-thienyl)-2-oxazol-2-yl-5,6,10,11,12,13-hexahydro[1,4]diazocino[6′,7′:4,5]pyrrolo[2,1-a]isoquinolin-8(9H)-one]",1.26 µM
